In patent US7825146B2, “Sulfonamide derivative having isoxazole ring” (Shionogi & Co., Ltd., priority 2003, dated 2010) one finds IC50 and melting point data, which are given here for 21 compounds.

For data set [1], the target named is T1, MMP-2 (Homo sapiens, UniProt P08253).
T1 construct: purchased Calbiochem-Novabiochem International, Inc
T1 sequence (P08253 110-660): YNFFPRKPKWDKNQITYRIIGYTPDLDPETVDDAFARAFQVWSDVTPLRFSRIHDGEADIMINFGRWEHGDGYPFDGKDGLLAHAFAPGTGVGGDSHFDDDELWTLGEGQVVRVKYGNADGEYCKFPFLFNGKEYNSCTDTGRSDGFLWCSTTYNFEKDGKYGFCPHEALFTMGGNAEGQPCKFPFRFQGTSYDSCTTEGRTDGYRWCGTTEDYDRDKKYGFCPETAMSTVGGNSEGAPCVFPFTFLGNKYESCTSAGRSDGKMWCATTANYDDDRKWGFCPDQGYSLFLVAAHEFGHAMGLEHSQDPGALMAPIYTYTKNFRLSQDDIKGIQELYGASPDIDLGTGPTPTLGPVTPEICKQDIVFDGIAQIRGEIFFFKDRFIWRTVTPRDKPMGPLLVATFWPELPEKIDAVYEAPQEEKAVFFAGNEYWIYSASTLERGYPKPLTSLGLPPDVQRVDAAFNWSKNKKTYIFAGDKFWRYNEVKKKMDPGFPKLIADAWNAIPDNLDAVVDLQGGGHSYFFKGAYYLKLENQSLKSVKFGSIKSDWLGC
Briefly: Assay for inhibitory activities on MMPs (fluorogenic MOCAc peptide substrate): MMP-2. The class given is biochemical. To be noted: MMP-2 purchased from Calbiochem-Novabiochem. The protocol:
MMP-2 was purchased from Calbiochem-Novabiochem International, Inc.
(§1) The enzymatic activity on MMPs was analyzed by the method described in “C. Graham Knight, Frances Willenbrock and Gillian Murphy: A novel coumarin-labelled peptide for sensitive continuous assays of the matrix metalloproteinases: FEBS LETT., 296, (1992), 263-266”. The substrate: MOCAc-Pro-Leu-Gly-Leu-A2Pr(DNP)-Ala-Arg-NH2 was purchased from Peptide Institute, Inc., Osaka, Japan. The measurement of the inhibitory activities (IC50) was carried out by the following four methods; • (A) Reaction with substrate, enzyme (MMPs) and inhibitor • (B) Reaction with substrate and inhibitor, without enzyme • (C) Reaction with substrate and enzyme (MMPs), without inhibitor • (D) Reaction with substrate only IC50 values were calculated by using the following formula and each fluorescence values of above four methods (A to D).
(§2) The value of inhibitory activity against MMP-2, MMP-8, MMP-9, MMP-12, and MMP-13 measured by above mentioned methods are shown in Table 36, 37, 38, 39, and 40 respectively.

In data set [2] the target is T2, MMP-13 (Homo sapiens, UniProt P45452).
T2 construct: catalytic domain (^104Tyr˜^267Gly) was amplified with RT-PCR; His-tag; enterokinase digestion-site; made in house
Briefly: Assay for inhibitory activities on MMPs (fluorogenic MOCAc peptide substrate): MMP-13. The format is biochemical. The note with it: Table 40. The protocol: (§3) In regard to MMP-13, mRNA was prepared from carcinoma cell SW1353 derived from human cartilage stimulate by IL-1, TNF and catalytic domain (^104Tyr˜^267Gly) was amplified with RT-PCR. This was cloned in Escherichia. coli expression vector pTrc99AHE inserted with His-tag sequence and enterokinase digestion-site, induced and expressed by IPTG (Isopropyl-β-D-thiogalactopyranoside) and expressed in a insoluble fraction. Isolation of MMP-13 from an insoluble fraction was carried out by dissolving in modifier (6M urea) by a usual method and purification with metal chelate chromatography (Ni Chelateing Sepharose). And then removing modifier (6M urea) with dialyze and refolding of the enzyme spontaneously gave activated MMP-13.
as §1, §2

The target of data set [3] is T3, MMP-12 (Homo sapiens, UniProt P39900).
T3 construct: In regard to MMP-12, catalytic domain(^100Phe˜^263Gly) was amplified with RT-PCR; His-tag; enterokinase digestion-site; made in house
T3 sequence (P39900 100-263): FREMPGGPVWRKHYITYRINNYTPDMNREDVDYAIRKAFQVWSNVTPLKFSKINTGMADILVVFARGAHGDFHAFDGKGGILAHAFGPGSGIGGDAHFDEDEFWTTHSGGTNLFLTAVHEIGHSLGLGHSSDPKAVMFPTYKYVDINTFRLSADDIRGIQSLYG
Briefly: Assay for inhibitory activities on MMPs (fluorogenic MOCAc peptide substrate): MMP-12. The class given is biochemical. The note with it: catalytic domain 100Phe-263Gly. The protocol:
as §3, with “MMP-12,” for “MMP-13, mRNA was prepared from carcinoma cell SW1353 derived from human cartilage stimulate by IL-1, TNF and”, “domain(^100Phe˜^263Gly)” for “domain (^104Tyr˜^267Gly)”, “RT-PCR from Human Placenta Total RNA.” for “RT-PCR.”, “MMP-12” for “MMP-13”, “dialysis” for “dialyze”, “MMP-12.” for “MMP-13.”
as §1, §2

For data set [4], the target named is T4, MMP-9 (Homo sapiens, UniProt P14780).
T4 construct: made in house; host or cells: endogenous secretion from human fibrosarcoma HT1080 cells (TPA-stimulated), purified from conditioned medium
T4 sequence (P14780 107-707 limits assumed): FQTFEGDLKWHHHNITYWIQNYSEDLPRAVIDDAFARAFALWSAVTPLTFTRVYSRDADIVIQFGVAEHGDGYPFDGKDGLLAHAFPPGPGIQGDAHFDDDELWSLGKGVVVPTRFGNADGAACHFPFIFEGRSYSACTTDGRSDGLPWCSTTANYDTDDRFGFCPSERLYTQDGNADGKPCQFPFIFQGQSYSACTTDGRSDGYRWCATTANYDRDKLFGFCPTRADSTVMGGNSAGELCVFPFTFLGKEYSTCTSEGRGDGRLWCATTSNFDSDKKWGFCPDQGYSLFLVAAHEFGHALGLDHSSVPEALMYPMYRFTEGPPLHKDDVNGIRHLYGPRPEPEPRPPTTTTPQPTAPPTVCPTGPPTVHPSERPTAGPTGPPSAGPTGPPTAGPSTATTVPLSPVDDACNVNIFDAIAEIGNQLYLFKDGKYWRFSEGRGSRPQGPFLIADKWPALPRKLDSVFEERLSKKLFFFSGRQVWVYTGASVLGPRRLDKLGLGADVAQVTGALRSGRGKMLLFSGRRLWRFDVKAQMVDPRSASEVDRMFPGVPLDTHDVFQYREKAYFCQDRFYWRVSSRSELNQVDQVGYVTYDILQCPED
As to the kind of experiment: Assay for inhibitory activities on MMPs (fluorogenic MOCAc peptide substrate): MMP-9. The format is biochemical. The note with it: from HT1080 cells, activated by TPCK-Trypsin.
From the text: MMP-9 was isolated and purified by procedures described in as follows: Yasunori Okada, Yukio Gonoji, Katsumi Naka, Katsuro Tomita, Isao Nakanishi, Kazushi Iwata, Kyoko Yamashita, and Taro Hayakawa: Matrix metalloproteinase 9 (92-kDa gelatinase/type IV collagenase) from HT1080 human fibrosarcoma cells. Purification and activation of the precursor and enzymic properties J. Biol. Chem., 1992, 267 21712-21719, in combination with others: 1) Yasunori Okada, Tatsuhisa Morodomi, Jan J, Enghild, ko Suzuki, Atsushi Yasui, Isao Nakanishi, Guy Salvesen and Hideaki Nagase: Matrix metalloproteinase 2 from human rheumatoid synovial fibroblasts. Purification and activation of the precursor and enzymic properties. Eur. J. Biochem. 1990, 194 721-730; 2) Robin V Ward, Rosalind M Hembry; John J Reynolds and Gillian Murphy: The purification of tissue inhibitor of metalloproteinase-2 from its 72 kDa progelatinase complex. Biochem. J. 1991 278 179-187. In detail, human fibrosarcoma ATCC HT1080 cell line was cultured to confluent in Dulbecco's Modified Medium (DMEM) containing 10% fetal-calf serum at 37° C. for 48 hours. Subsequently, the medium of confluent culture was changed to serum-free DMEM medium. To obtain MMP-9, Phorbol-12-myristate-13-acetate (TPA) must be added to this serum-free DMEM medium at a concentration of 50 ng/ml. The TPA treated medium was centrifuged at 3000 rpm for 15 min and the supernatant was concentrated to 450 ml by a Toyo-Roshi UP-20 apparatus with an ultrafiltration membrane. Then, proMMP-9 in this concentrated solution was purified by using columns of Gelatin-Sepharose and Concanavalin A-Sepharose. The pool containing proMMP-9 was dialyzed, concentrated (Toyo-Roshi UP-20) and applied to columns of Sephacryl S-200 and Green A matrix for the separation from TIMPs. The obtained proMMP-9 fraction was activated by TPCK-Trypsin (Final conc. 3 μg/50 μl React Mix.).
as §1, §2

The target of data set [5] is T5, MMP-8 (Homo sapiens, UniProt P22894).
T5 construct: In regard to MMP-8, catalytic domain (^99Phe˜^262Gly) was amplified with PCR; His-tag; enterokinase digestion-site; made in house
T5 sequence (P22894 99-262): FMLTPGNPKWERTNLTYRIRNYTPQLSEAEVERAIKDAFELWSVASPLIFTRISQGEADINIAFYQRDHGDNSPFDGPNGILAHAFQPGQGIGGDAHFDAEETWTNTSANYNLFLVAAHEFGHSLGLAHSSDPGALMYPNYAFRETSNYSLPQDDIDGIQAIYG
Briefly: Assay for inhibitory activities on MMPs (fluorogenic MOCAc peptide substrate): MMP-8. The format is biochemical. To be noted: catalytic domain 99Phe-262Gly.
From the text: In regard to MMP-8, catalytic domain (^99Phe˜^262Gly) was amplified with PCR using commercial available Human Bone Marrow cDNA. This was cloned in Escherichia. coli expression vector pTrc99AHE inserted with His-tag sequence and enterokinase digestion-site, induced and expressed by IPTG (Isdpropyl-β-D-thiogalactopyranoside) and expressed in a insoluble fraction (Thau F. Ho, M. Walid Qoronfleh, Robert C. Wahl, Trica A. Pulvino, Karen J. Vavra, Joe Falvo, Tracey M. Banks, Patricia G. Brake and Richard B. Ciccarelli: Gene expression, purification and characterization of recombinant human neutrophil collagenase. Gene 146, (1994) 297-301, Prepared by the a improved method of this material). Isolation of MMP-8 from an insoluble fraction was carried out by dissolving in modifier (6M urea) by a usual method and purification with metal chelate chromatography. And then removing modifier (6M urea) with dialysis and refolding of the enzyme spontaneously gave activated MMP-8.
as §1, §2

As to `CC(C)c1ccc(-c2cc(-c3ccc(S(=O)(=O)N[C@@H](C(=O)O)C(C)C)cc3)on2)cc1` [Example A-16], the IC50 in data set [1] was 0.0767 nM; in data set [2], 0.000328 µM; in data set [3], 0.000687 µM.

On to `CC(C)[C@@H](NS(=O)(=O)c1ccc(-c2cc(-c3ccc(OC(F)(F)F)cc3)no2)cc1)C(=O)O` [Example A-18], for which the IC50 came to 0.00052 µM in data set [4], 0.0674 nM in data set [1], 0.000263 µM in data set [2] and 0.000376 µM in data set [3].

`CC(C)[C@@H](NS(=O)(=O)c1ccc(-c2cc(-c3ccc(SC(F)(F)F)cc3)no2)cc1)C(=O)O` [Example A-32]: the results for the IC50 in data set [4], in data set [2] and in data set [3] were 0.000609 µM, 0.000193 µM and 0.000463 µM, respectively.

As for `Cc1ccc(-c2cc(-c3ccc(S(=O)(=O)N[C@@H](C(=O)O)C(C)C)cc3)on2)s1` [Example A-33], the IC50 in data set [1] was found to be 0.0971 nM; in data set [5] it was 0.00291 µM.

For the compound `Cc1ccc(-c2cc(-c3ccc(S(=O)(=O)N[C@H](C)C(=O)O)cc3)no2)cc1` [Example C-1], the melting point is 218 to 221 °C. The compound further came in with an IC50 in data set [3] of 0.000707 µM.

Take `CSc1ccc(-c2cc(-c3ccc(S(=O)(=O)N[C@H](C)C(=O)O)cc3)no2)cc1` [Example C-4]: the values for the IC50 in data set [1], in data set [2] and in data set [3] were 0.0934 nM, 0.000404 µM and 0.000377 µM, respectively.

As to `CSc1ccc(-c2cc(-c3ccc(S(=O)(=O)N[C@@H](C(=O)O)C(C)C)cc3)no2)cc1` [Example C-10], the IC50 in data set [1] is 0.0619 nM; in data set [2], 0.000282 µM; in data set [3], 0.000201 µM; in data set [5], 0.0039 µM.

Turning to `CCc1ccc(-c2cc(-c3ccc(S(=O)(=O)N[C@@H](C(=O)O)C(C)C)cc3)no2)cc1` [Example C-12], the IC50 in data set [4] worked out at 0.000532 µM; in data set [1], 0.0832 nM; in data set [2], 0.000266 µM; in data set [3], 0.000316 µM.

As to `CCCc1ccc(-c2cc(-c3ccc(S(=O)(=O)N[C@@H](C(=O)O)C(C)C)cc3)no2)cc1` [Example C-14], the figures for the concentration for half-maximal inhibition (IC50) in data set [1], in data set [2] and in data set [3] were 0.0533 nM, 0.00015 µM and 0.000216 µM, respectively.

Consider `CC(C)c1ccc(-c2cc(-c3ccc(S(=O)(=O)N[C@@H](C(=O)O)C(C)C)cc3)no2)cc1` [Example C-15], for which the IC50 is 0.049 nM in data set [1], 0.000136 µM in data set [2] and 0.00015 µM in data set [3].

In the case of `CCCCc1ccc(-c2cc(-c3ccc(S(=O)(=O)N[C@@H](C(=O)O)C(C)C)cc3)no2)cc1` [Example C-17], the IC50 was 0.000578 µM in data set [2], 0.000239 µM in data set [3] and 0.00421 µM in data set [5].

As for `COc1ccc(-c2cc(-c3ccc(S(=O)(=O)N[C@@H](C(=O)O)C(C)C)cc3)no2)cc1` [Example C-18], the IC50 amounted to 0.000853 µM in data set [2], 0.000384 µM in data set [3] and 0.00419 µM in data set [5].

On to `CC(C)[C@@H](NS(=O)(=O)c1ccc(-c2cc(-c3ccc(Cl)cc3)on2)cc1)C(=O)O` [Example C-20], for which the IC50 was determined as 0.00092 µM in data set [4] and 0.000366 µM in data set [3].

On to `CC(C)[C@@H](NS(=O)(=O)c1ccc(-c2cc(-c3ccc(Br)cc3)on2)cc1)C(=O)O` [Example C-22], for which the IC50 came out at 0.000706 µM in data set [4] and 0.000275 µM in data set [3].

As for `CC(C)[C@@H](NS(=O)(=O)c1ccc(-c2cc(-c3ccc(OC(F)(F)F)cc3)on2)cc1)C(=O)O` [Example C-25], the IC50 in data set [4] is 0.00032 µM; in data set [2] it was 0.000223 µM; in data set [3], 0.000196 µM.

As for `Cc1ccc(-c2cc(-c3ccc(S(=O)(=O)N[C@@H](C(=O)O)C(C)C)cc3)no2)s1` [Example C-29], the IC50 worked out at 0.00034 µM in data set [4]; 0.0449 nM in data set [1]; 0.000701 µM in data set [2]; 0.000368 µM in data set [3]; 0.000567 µM in data set [5].

Turning to `CC(C)[C@@H](NS(=O)(=O)c1ccc(-c2cc(-c3ccc(Cl)s3)on2)cc1)C(=O)O` [Example C-33], the IC50 in data set [4] is 0.000467 µM; in data set [3], 0.000535 µM; in data set [5], 0.000781 µM.

For the compound `CC(C)[C@@H](NS(=O)(=O)c1ccc(-c2cc(-c3ccc(Cl)c(F)c3)on2)cc1)C(=O)O` [Example C-36], the values for the IC50 in data set [4] and in data set [3] were 0.000741 µM and 0.000245 µM, respectively.

For the compound `COc1ccc(-c2cc(-c3ccc(S(=O)(=O)N[C@@H](C(=O)O)C(C)C)cc3)no2)cc1F` [Example C-51], the IC50 stood at 0.000836 µM in data set [2], 0.000266 µM in data set [3] and 0.00263 µM in data set [5].

Take `CCC(C)[C@H](NS(=O)(=O)c1ccc(-c2cc(-c3ccc(SC)cc3)on2)cc1)C(=O)O` (stereo partly shown) [Example C-97]: the IC50 in data set [2] worked out at 0.000578 µM; in data set [3] it was 0.000239 µM; in data set [5] it was 0.00421 µM.

Take `Cc1ccc(-c2cc(-c3ccc(S(=O)(=O)N[C@H](Cc4ccccc4)C(=O)O)cc3)no2)s1` [Example C-124]: the IC50 turned out to be 0.000585 µM in data set [4], 0.0926 nM in data set [1], 0.000528 µM in data set [2] and 0.00178 µM in data set [5].

As usually defined, the IC50 is the concentration that inhibits the measured activity by half. By melting point is commonly meant the temperature, or range, at which the solid turns liquid.
